# Measurements reported in PubChem BioAssay (NCI).
#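 Protocol summary: plate cells (96-well), add compound at 5 concentrations, incubate 48 h, interpolate endpoints linearly. GI50: concentration for 50% inhibition of growth. Definition used: TGI = concentration required for complete inhibition of growth.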
# Columns and labels:
# Assay in all cases: NCI-60 cell line screen, 48 h
# SK-MEL-28 melanoma = test system: SK-MEL-28 melanoma
# MALME-3M melanoma = test system: MALME-3M melanoma
# SF-539 CNS = test system: SF-539 CNS
# UACC-62 melanoma = test system: UACC-62 melanoma
# OVCAR-8 ovarian = test system: OVCAR-8 ovarian
# IGROV1 ovarian = test system: IGROV1 ovarian
# ACHN renal = test system: ACHN renal
# SN12C renal = test system: SN12C renal
# NCI-H460 lung = test system: NCI-H460 lung
# COLO 205 colon = test system: COLO 205 colon
# MDA-MB-231 breast = test system: MDA-MB-231 breast
# CCRF-CEM leukemia = test system: CCRF-CEM leukemia
# A498 renal = test system: A498 renal
# HL-60(TB) leukemia = test system: HL-60(TB) leukemia
# CAKI-1 renal = test system: CAKI-1 renal
# NCI-H226 lung = test system: NCI-H226 lung
# OVCAR-3 ovarian = test system: OVCAR-3 ovarian
# SR leukemia = test system: SR leukemia
# KM12 colon = test system: KM12 colon
# HCT-15 colon = test system: HCT-15 colon
# SF-295 CNS = test system: SF-295 CNS
# SW-620 colon = test system: SW-620 colon
# NCI/ADR-RES ovarian = test system: NCI/ADR-RES ovarian
# TK-10 renal = test system: TK-10 renal
# OVCAR-5 ovarian = test system: OVCAR-5 ovarian
# HCT-116 colon = test system: HCT-116 colon
# SF-268 CNS = test system: SF-268 CNS
# MCF7 breast = test system: MCF7 breast
# NCI-H522 lung = test system: NCI-H522 lung
smiles,measurement,setting,value
CC(=O)c1ccc(Nc2nc(SC(C)C)nc(-c3ccccc3)c2C#N)cc1,GI50,SK-MEL-28 melanoma,16.9 µM
same,TGI,SK-MEL-28 melanoma,> 100 µM
same,GI50,MALME-3M melanoma,14.1 µM
same,TGI,MALME-3M melanoma,> 100 µM
same,GI50,SF-539 CNS,2.17 µM
same,TGI,SF-539 CNS,7.69 µM
same,GI50,UACC-62 melanoma,43.8 µM
same,TGI,UACC-62 melanoma,> 100 µM
same,GI50,OVCAR-8 ovarian,3.29 µM
same,TGI,OVCAR-8 ovarian,> 100 µM
same,GI50,IGROV1 ovarian,8.02 µM
same,TGI,IGROV1 ovarian,> 100 µM
same,GI50,ACHN renal,2.15 µM
same,TGI,ACHN renal,5.17 µM
same,GI50,SN12C renal,11.4 µM
same,TGI,SN12C renal,> 100 µM
same,GI50,NCI-H460 lung,3.53 µM
same,TGI,NCI-H460 lung,> 100 µM
same,GI50,COLO 205 colon,15.6 µM
same,TGI,COLO 205 colon,> 100 µM
same,GI50,MDA-MB-231 breast,2.9 µM
same,TGI,MDA-MB-231 breast,8.23 µM
same,GI50,CCRF-CEM leukemia,> 100 µM
same,TGI,CCRF-CEM leukemia,> 100 µM
same,GI50,A498 renal,24.2 µM
same,TGI,A498 renal,71.9 µM
same,GI50,HL-60(TB) leukemia,> 100 µM
same,TGI,HL-60(TB) leukemia,> 100 µM
same,GI50,CAKI-1 renal,2.82 µM
same,TGI,CAKI-1 renal,13.2 µM
same,GI50,NCI-H226 lung,2.54 µM
same,TGI,NCI-H226 lung,7.14 µM
same,GI50,OVCAR-3 ovarian,40 µM
same,TGI,OVCAR-3 ovarian,> 100 µM
same,GI50,SR leukemia,> 100 µM
same,TGI,SR leukemia,> 100 µM
same,GI50,KM12 colon,> 100 µM
same,TGI,KM12 colon,> 100 µM
same,GI50,HCT-15 colon,7.61 µM
same,TGI,HCT-15 colon,> 100 µM
same,GI50,SF-295 CNS,1.4 µM
same,TGI,SF-295 CNS,3.25 µM
same,GI50,SW-620 colon,3.77 µM
same,TGI,SW-620 colon,64.1 µM
same,GI50,NCI/ADR-RES ovarian,2.82 µM
same,TGI,NCI/ADR-RES ovarian,10.6 µM
same,GI50,TK-10 renal,2.54 µM
same,TGI,TK-10 renal,5.67 µM
same,GI50,OVCAR-5 ovarian,21.2 µM
same,TGI,OVCAR-5 ovarian,> 100 µM
same,GI50,HCT-116 colon,1.34 µM
same,TGI,HCT-116 colon,6.69 µM
same,GI50,SF-268 CNS,5.35 µM
same,TGI,SF-268 CNS,> 100 µM
same,GI50,MCF7 breast,4.74 µM
same,TGI,MCF7 breast,> 100 µM
same,GI50,NCI-H522 lung,8.3 µM
same,TGI,NCI-H522 lung,> 100 µM
